According to patent EP4631938A1, “NITROGEN-CONTAINING HETEROCYCLE WITH SEROTONIN RECEPTOR-BINDING ACTIVITY AND CARBOCYCLIC DERIVATIVE” (Shionogi & Co., Ltd, priority 2022, dated 2024):
Read-outs that look alike come from different tables or passages of the source.

Columns and labels:
[1] = molecular target: T1, human recombinant 5-HT2A receptor (Homo sapiens, UniProt P28223); test: Test Example 1-2: 5-HT2A receptor binding inhibition test ([3H]-Ketanserin; non-specific ligand Ketanserin)
T1 construct: expressed in transfected cells; host or cells: Jump-In HEK cells (membrane preparation)
Method: The Kd value is calculated when the lot of the cell membrane is changed. 1 mmol/L non-specific binding calculating compound dissolved in DMSO or DMSO is previously dispensed to the microplate by 0.5 µL, and the cell membrane is diluted with an Assay buffer. The radioactive ligand solution is diluted step by step, and counts are checked with a liquid scintillator. The Assay buffer containing diluted cell membranes is dispensed by 50 µL/well into the microplate. The radioactive ligand solution is then dispensed by 50 µL/well into the microplate and the plate is sealed. The microplate is allowed to stand for 1.5 hours at room temperature (25°C). During this time, 50 mmol/L Tris-HCl (pH 7.4) is dispensed by 50 µL/well into the UniFilter plate and allowed to stand at 4°C for 1 hour or longer. Thereafter, filtration is performed with a Cell Harvester (PerkinElmer). The radioactive ligand solution is dispensed by 10 µL/well into empty wells of the UniFilter plate. After drying the UniFilter plate at room temperature, MicroScinti20 is dispensed by 50 µL/well into the UniFilter plate, and the plate is sealed. UniFilter plate is allowed to stand at room temperature overnight. The radioactivity of [^3H]-Ketanserin bound to the 5-HT2A receptor is measured using Microbeta2 (PerkinElmer) at a measurement time of 1 min/well. The Saturation curve is drawn from the measured value, and the Kd value is calculated from the slope of the Scatchard Plot.
A compound solution dissolved in DMSO is dispensed to a microplate by 0.5 µL, and a cell membrane and a hot ligand are each diluted with an Assay buffer. The Assay buffer containing diluted cell membrane is then dispensed by 50 µL/well into the microplate. The radioactive ligand solution is then dispensed by 50 µL/well into the microplate and the plate is sealed. Thereafter, the microplate is allowed to stand at room temperature (25°C) for 1.5 hours. During this time, 50 mmol/L Tris-HCl (pH 7.4) is dispensed by 50 µL/well into the UniFilter plate and allowed to stand at 4°C for 1 hour or longer. Thereafter, filtration is performed with a Cell Harvester (PerkinElmer). After drying the UniFilter plate at room temperature, MicroScinti20 is dispensed by 50 µL/well into the UniFilter plate, and the plate is sealed. UniFilter plate is allowed to stand at room temperature overnight. The radioactivity of [^3H]-Ketanserin bound to the 5-HT2A receptor is measured using Microbeta2 (PerkinElmer) at a measurement time of 1 min/well. Non-specific binding is calculated from the radioactivity of [^3H]-Ketanserin in the presence of 500 µmol/L Ketanserin of unlabeled ligand, and total binding is calculated from the radioactivity of [^3H]-Ketanserin in the absence of the compound of the present invention (Vehicle). Finally, the Ki value is calculated from the dose-response curve.
(§1) (The binding activity of the compound according to the present invention is calculated from the following binding inhibition rate (%).) Inhibition rate (%) = [1−(c−a)/(b−a)] × 100 [formula] • a; average cpm of non-specific binding • b; average cpm of total binding • c; cpm in the presence of the test compound
(§2) The compounds of the present invention were tested essentially as described above.

[2] = molecular target: T2, human recombinant 5-HT2C receptor (Homo sapiens, UniProt P28335); test: Test Example 2: 5-HT2C receptor binding inhibition test ([3H]-Mesulergine; non-specific ligand Serotonin HCl); details: human serotonin 5-HT2C receptor binding activity
T2 construct: expressed in transfected cells; host or cells: Jump-In HEK cells (membrane preparation)
T2 sequence (P28335 33-458): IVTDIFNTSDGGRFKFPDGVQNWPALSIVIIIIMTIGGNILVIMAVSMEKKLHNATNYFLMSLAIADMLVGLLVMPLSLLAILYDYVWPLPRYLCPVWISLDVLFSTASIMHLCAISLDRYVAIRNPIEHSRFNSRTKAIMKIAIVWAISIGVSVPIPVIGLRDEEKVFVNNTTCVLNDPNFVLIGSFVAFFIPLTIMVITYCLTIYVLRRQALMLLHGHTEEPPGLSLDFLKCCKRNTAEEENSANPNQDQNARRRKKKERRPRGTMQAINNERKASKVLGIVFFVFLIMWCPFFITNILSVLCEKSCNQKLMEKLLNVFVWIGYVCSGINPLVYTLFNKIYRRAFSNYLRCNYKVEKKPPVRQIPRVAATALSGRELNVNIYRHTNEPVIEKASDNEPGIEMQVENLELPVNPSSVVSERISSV
Method: The Kd value is calculated when the lot of the cell membrane is changed. 1 mmol/L non-specific binding calculating compound dissolved in DMSO or DMSO is previously dispensed to the microplate by 0.5 µL, and the cell membrane is diluted with an Assay buffer. The radioactive ligand solution is diluted step by step, and counts are checked with a liquid scintillator. The Assay buffer containing diluted cell membranes is dispensed by 50 µL/well into the microplate. The radioactive ligand solution is then dispensed by 50 µL/well into the microplate and the plate is sealed. The microplate is allowed to stand at 37°C for 2 hours. During this time, 50 mmol/L Tris-HCl (pH 7.4) is dispensed by 50 µL/well into the GF/B UniFilter plate and allowed to stand at 4°C for 1 hour or longer. Thereafter, filtration is performed with a Cell Harvester (PerkinElmer). The radioactive ligand solution is dispensed by 10 µL/well into empty wells of the GF/B UniFilter plate. After drying the GF/B UniFilter plate at room temperature, MicroScinti20 is dispensed by 50 µL/well into the GF/B UniFilter plate, and the plate is sealed. GF/B UniFilter plate is allowed to stand at room temperature overnight. The radioactivity of [^3H]-Mesulergine bound to the 5-HT2C receptor is measured using Microbeta2 (PerkinElmer) at a measurement time of 1 min/well. The Saturation curve is drawn from the measured value, and the Kd value is calculated from the slope of the Scatchard Plot.
A compound solution dissolved in DMSO is dispensed to a microplate by 0.5 µL, and a cell membrane and a hot ligand are each diluted with an Assay buffer. The Assay buffer containing diluted cell membrane is then dispensed by 50 µL/well into the microplate. The radioactive ligand solution is then dispensed by 50 µL/well into the microplate and the plate is sealed. The microplate is then allowed to stand at 37°C for 2 hours. During this time, 50 mmol/L Tris-HCl (pH 7.4) is dispensed by 50 µL/well into the GF/B UniFilter plate and allowed to stand at 4°C for 1 hour or longer. Thereafter, filtration is performed with a Cell Harvester (PerkinElmer). After drying the GF/B UniFilter plate at room temperature, MicroScinti20 is dispensed by 50 µL/well into the GF/B UniFilter plate, and the plate is sealed. GF/B UniFilter plate is allowed to stand at room temperature overnight. The radioactivity of [^3H]-Mesulergine bound to the 5-HT2C receptor is measured using Microbeta2 (PerkinElmer) at a measurement time of 1 min/well. Non-specific binding is calculated from the radioactivity of [^3H]-Mesulergine in the presence of 500 µmol/L Serotonin HCl of unlabeled ligand, and total binding is calculated from the radioactivity of [^3H]-Mesulergine in the absence of the compound of the present invention (Vehicle). Finally, the Ki value is calculated from the dose-response curve.
as §1, §2

[3] = [3H]-Ketanserin; non-specific binding with 500 µmol/L Ketanserin; room temperature (25°C), 1.5 hours; read-out: h 5-HT2A Ki
[4] = read-out: h 5-HT2A Ki; [3H]-Ketanserin; non-specific binding with 500 µmol/L Ketanserin; room temperature (25°C), 1.5 hours

T1 sequence (P28223 whole entry): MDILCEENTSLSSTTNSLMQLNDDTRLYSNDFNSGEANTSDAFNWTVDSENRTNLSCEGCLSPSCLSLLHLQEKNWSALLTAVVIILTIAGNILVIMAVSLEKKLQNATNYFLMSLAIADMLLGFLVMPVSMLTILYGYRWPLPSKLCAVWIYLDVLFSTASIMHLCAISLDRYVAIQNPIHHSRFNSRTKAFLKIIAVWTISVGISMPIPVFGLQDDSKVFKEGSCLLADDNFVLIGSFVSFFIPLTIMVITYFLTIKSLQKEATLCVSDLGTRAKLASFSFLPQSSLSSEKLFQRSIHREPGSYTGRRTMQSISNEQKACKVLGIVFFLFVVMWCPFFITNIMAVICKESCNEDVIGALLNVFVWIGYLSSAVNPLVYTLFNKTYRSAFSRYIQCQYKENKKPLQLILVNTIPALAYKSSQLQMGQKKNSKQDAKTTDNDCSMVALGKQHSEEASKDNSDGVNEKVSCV

Compound	Ki [1, 3] [nM]	Ki [2] [nM]	Ki [1, 4] [nM]
Cc1nc(C)c(-c2cc(Nc3ccc(-c4ccc(F)cc4)cn3)ncc2OCCO)c(C)n1 [Compound I-309]	0.247	1.37	–
COCc1nc(C)c(-c2cc(Nc3ncc(OCC(F)(F)C(F)(F)F)cc3Cl)ncc2OCCO)c(C)n1 [Compound I-233]	4.42	1.76	–
COCc1nc(C)c(-c2cc(Nc3ncc(C(F)(F)F)cc3F)ncc2OCCO)c(C)n1 [Compound I-199]	6.09	5.98	–
COCc1nc(C)c(-c2cc(Nc3ncc(-c4cnn(C(F)(F)F)c4)cc3Cl)ncc2OCCO)c(C)n1 [Compound I-243]	3.58	2.53	–
Cc1nc(C)c(-c2cc(Nc3cc(OC(F)F)c(Cl)cn3)ncc2OCCO)c(C)n1 [Compound I-302]	1.08	6.21	–
Cn1ncc(Br)c1-c1nc(Nc2ccc(C(F)(F)F)cc2)c(F)cc1OCCO [Compound I-276]	0.135	0.267	–
Cc1nc(C)c(-c2cc(Nc3ncc(OC(F)(F)F)cc3F)ncc2OCCO)c(C)n1 [Compound I-300]	1.33	7.17	–
Cc1cc(OC(F)(F)F)ccc1Nc1ncc(OCCO)c(-c2c(Br)cnn2C)n1 [Compound I-346]	0.24	1.7	–
COCc1nc(C)c(-c2cc(Nc3ncc(-c4nc(C(F)(F)F)co4)cc3Cl)ncc2OCCO)c(C)n1 [Compound I-240]	2.05	1.54	–
COc1cnc(Nc2cc(-c3c(Cl)cnn3C)c(OCCO)cc2F)nc1 [Compound I-169]	0.738	9.97	–
Cc1nc(COC(C)C)nc(C)c1-c1cc(Nc2ncc(C(F)(F)F)cc2Cl)ncc1OCCO [Compound I-204]	2.35	2.7	–
Cc1cc(C(F)(F)F)cnc1Nc1cc(-c2c(C)cnn2C)c(OCCO)cn1 [Compound I-226]	0.268	1.91	–
COCc1nc(C)c(-c2cc(Nc3ncc(-c4nc(C(F)(F)F)cs4)cc3Cl)ncc2OCCO)c(C)n1 [Compound I-328]	1.1	0.499	–
COCc1nc(C)c(-c2cc(Nc3ncc(-c4cccc(C#N)c4)cc3Cl)ncc2OCCO)c(C)n1 [Compound I-260]	2.05	2.06	–
Cn1ncc(Br)c1-c1cc(Nc2ncc(OC(F)(F)F)cn2)ncc1OCCO [Compound I-296]	0.349	3.02	–
COCc1nc(C)c(-c2cc(Nc3ncc(-c4ccc(F)c(F)c4)cc3Cl)ncc2OCCO)c(C)n1 [Compound I-254]	0.496	0.278	–
COCc1nc(C)c(-c2cc(Nc3ncc(OC(F)(F)F)cc3OC)ncc2OCCO)c(C)n1 [Compound I-196]	4.46	5.17	–
CC(CO)Oc1cnc(Nc2ncc(C(F)(F)F)cc2F)cc1-c1c(Br)cnn1C (single isomer, unassigned) [Compound I-224]	–	–	0.521
Cc1nc(C)c(-c2cc(Nc3ncc(OCC(F)(F)C(F)(F)F)cc3Cl)ncc2OCCO)c(C)n1 [Compound I-250]	–	2.43	–
CC(CO)Oc1cnc(Nc2ncc(C(F)(F)F)cc2F)cc1-c1c(Br)cnn1C (single isomer, unassigned) [Compound I-225]	–	–	0.396

Further lines, with some results ahead:

Ki [1, 3] [nM]	Ki [2] [nM]	Compound	Ki [1, 4] [nM]
2.44	3.43	Cc1nc(COC2CCCOC2)nc(C)c1-c1cc(Nc2ncc(C(F)(F)F)cc2Cl)ncc1OCCO (racemic) [Compound I-382]	–
0.5	0.322	COCc1nc(C)c(-c2cc(Nc3ncc(-c4ccc(F)cc4F)cc3Cl)ncc2OCCO)c(C)n1 [Compound I-256]	–
0.338	1.38	Cn1ncc(Br)c1-c1cc(Nc2ccc(C(F)(F)F)cn2)c(Cl)cc1OCCO [Compound I-400]	–
2.88	12.3	Cc1nc(C)c(-c2cc(Nc3ncc(OC(F)(F)F)cc3F)ncc2O[C@H](C)CO)c(C)n1 [Compound I-392]	–
0.453	6.81	Cc1cc(OC(F)F)cnc1Nc1cc(-c2c(C)cnn2C)c(OCCO)cn1 [Compound I-176]	–
1.2	2.41	Cc1nc(C)c(-c2cc(Nc3ncc(C(F)(F)F)cc3C)ncc2OCCO)c(C)n1 [Compound I-389]	–
0.672	0.623	COCc1nc(C)c(-c2cc(Nc3ncc(-c4cccc(F)c4F)cc3Cl)ncc2OCCO)c(C)n1 [Compound I-259]	–
0.181	1.87	Cn1ncc(C#N)c1-c1cc(Nc2ccc(-c3ccc(F)cc3)cn2)ncc1OCCO [Compound I-188]	–
2.19	59.1	OCCOc1cnc(Nc2ncc(C(F)(F)F)cc2F)cc1-c1cccnc1C(F)F [Compound I-366]	–
2.4	2.69	COCc1nc(C)c(-c2cc(Nc3ncc(-n4cc(C(F)F)cn4)cc3Cl)ncc2OCCO)c(C)n1 [Compound I-327]	–
1.3	1.78	Cc1nc(C2CC2)nc(C)c1-c1cc(Nc2ncc(C(F)(F)F)cc2Cl)ncc1OCCO [Compound I-206]	–
0.262	1.08	Cn1ncc(Br)c1-c1nc(Nc2ccc(OC(F)(F)F)cc2)ncc1OCCO [Compound I-347]	–
0.678	–	Cc1nc(C)c(-c2cc(Nc3ncc(C(F)(F)F)cc3F)c(F)cc2OCCO)c(C)n1 [Compound I-146]	–
0.315	–	Cn1ncc(Br)c1-c1cc(Nc2ncc(Cl)cn2)ccc1OCCO [Compound I-119]	–
